Activity calls are given as the source filed them. The calls are words filed in the database; no cut-off is given here.
Assays:
Mus musculus [1] = assay: Dose required to induce hyperactivity in mice (ip); format: functional
Mus musculus [2] = assay: Dose required to induce hypersensitivity in mice (ip); weak active at a dose of 12.5 mg/kg; format: functional, organism-based; design: dose 12.5 mg/kg
Mus musculus [3] = assay: Minimal dose required to cause aggressiveness in mice after ip administration; format: functional
Mus musculus [4] = assay: Minimal dose required to cause piloerection in mice after ip administration; not active at a dose of 12.5 mg/kg; format: functional, organism-based; design: dose 12.5 mg/kg
Mus musculus [5] = assay: Minimal dose required to induce hyperaesthesia in mice (ip); format: functional
Mus musculus [6] = assay: Minimal dose required to induce in mice exophthalmus (ip); format: functional
Mus musculus [7] = assay: Minimal dose required to induce in mice straub tail (ip); format: functional
Mus musculus [8] = assay: Inhibition of reserpine (5 mg/kg i.p.) induced hypothermia in mice 2 hr after i.p. administration.; format: functional; conditions: ip
Mus musculus [9] = assay: Lethal dose by i.p. administration.; format: functional; conditions: ip
Mus musculus [10] = assay: Inhibition of reserpine (5 mg/kg i.p.) induced hypothermia in mice 4 hr after i.p. administration.; format: functional; conditions: ip
Mus musculus [11] = assay: Dose at which 50% convulsions occurred in mice (ip); format: functional
Mus musculus [12] = assay: Dose required to induce hyperactivity in mice (ip); not active at a dose of 25.0 mg/kg; format: functional, organism-based; design: dose 25 mg/kg
Mus musculus [13] = assay: Dose required to induce hypersensitivity in mice (ip); format: functional
Mus musculus [14] = assay: Minimal dose required to cause aggressiveness in mice after ip administration; not active at a dose of 25.0 mg/kg; format: functional, organism-based; design: dose 25 mg/kg
Mus musculus [15] = assay: Minimal dose required to cause piloerection in mice after ip administration; format: functional
Mus musculus [16] = assay: Dose required to induce hypersensitivity in mice (ip); not active at a dose of 25.0 mg/kg; format: functional, organism-based; design: dose 25 mg/kg
Mus musculus [17] = assay: Minimal dose required to cause piloerection in mice after ip administration; not active at a dose of 25.0 mg/kg; format: functional, organism-based; design: dose 25 mg/kg
Felis catus = assay: Compound tested to induce facilitation of monosynaptic spikes in spinal ventral root by stimulation of the dorsal root (DR-VR) after iv administration in cats; format: functional
Mus musculus [18] = assay: Dose required to induce hyperactivity in mice (ip); not active at a dose of 50.0 mg/kg; format: functional, organism-based; design: dose 50 mg/kg
Mus musculus [19] = assay: Dose required to induce hypersensitivity in mice (ip); not active at a dose of 50.0 mg/kg; format: functional, organism-based; design: dose 50 mg/kg
Mus musculus [20] = assay: Minimal dose required to cause aggressiveness in mice after ip administration; not active at a dose of 50.0 mg/kg; format: functional, organism-based; design: dose 50 mg/kg
Mus musculus [21] = assay: Minimal dose required to cause piloerection in mice after ip administration; not active at a dose of 50.0 mg/kg; format: functional, organism-based; design: dose 50 mg/kg
Mus musculus [22] = assay: Minimal dose required to induce hyperaesthesia in mice (ip); not active at a dose of 50.0 mg/kg; format: functional, organism-based; design: dose 50 mg/kg
Mus musculus [23] = assay: Minimal dose required to induce in mice exophthalmus (ip); not active at a dose of 50.0 mg/kg; format: functional, organism-based; design: dose 50 mg/kg
Mus musculus [24] = assay: Minimal dose required to induce in mice straub tail (ip); not active at a dose of 50.0 mg/kg; format: functional, organism-based; design: dose 50 mg/kg

Structure (SMILES) | MD (Mus musculus [5]) [mg/kg] | MD (Mus musculus [6]) [mg/kg] | MD (Mus musculus [7]) [mg/kg] | ED50 (Mus musculus [8]) [mg/kg] | LD50 (Mus musculus [9]) [mg/kg] | ED50 (Mus musculus [10]) [mg/kg] | CD50 (Mus musculus [11]) [mg/kg] | ED50 (Mus musculus [12]) | ED50 (Mus musculus [13]) [mg/kg] | MD (Mus musculus [14]) | ED50 (Mus musculus [16]) | MD (Mus musculus [17]) | ED50 (Mus musculus [18]) | MD (Mus musculus [20]) | other results
OC1(c2cccc(F)c2)Cc2ccccc2C2=NCCN21 (centres undefined) | 9.4 | 9.4 | 9.4 | 0.7 | 21 | 5.2 | – | – | – | – | – | – | – | – | ED50 (Mus musculus [1]): 12.5 mg/kg; ED50 (Mus musculus [2]): Weak; MD (Mus musculus [3]): 9.4 mg/kg; MD (Mus musculus [4]): inactive
OC1(c2cccs2)Cc2ccccc2C2=NCCN21 (centres undefined) | 18.8 | 18.8 | 18.8 | 4.5 | 68.8 | > 25.6 | 75 | inactive | 25 | inactive | – | – | – | – | MD (Mus musculus [15]): 25 mg/kg
OC1(c2ccncc2)Cc2ccccc2C2=NCCN21 (centres undefined) | 18.8 | 18.8 | 18.8 | 2.3 | 37.9 | 3.3 | 37.5 | inactive | – | inactive | Weak | inactive | – | – | –
CN(C)CCCN1c2ccccc2CCc2ccccc21 [IMIPRAMINE] | – | – | – | 6.3 | – | 12.8 | – | – | – | – | – | – | – | – | –
OC1(c2ccc(Cl)cc2Cl)Cc2ccccc2C2=NCCN21 (centres undefined) | – | – | – | 5.4 | 81.3 | > 25.6 | 75 | – | – | – | – | – | inactive | inactive | Activity (Felis catus): >3 mg/kg; ED50 (Mus musculus [19]): inactive; MD (Mus musculus [21]): inactive; MD (Mus musculus [22]): inactive; MD (Mus musculus [23]): inactive; MD (Mus musculus [24]): inactive
OC1(c2ccccc2Cl)Cc2ccccc2C2=NCCN21 (centres undefined) | 18.8 | 9.4 | 25 | 6.1 | 34.4 | 11.5 | 37.5 | inactive | – | inactive | inactive | inactive | – | – | –
OC1(c2cccc(Cl)c2)Cc2ccccc2C2=NCCN21 (centres undefined) | – | – | – | 2.1 | 37.5 | 11.5 | 37.5 | – | – | – | – | – | – | – | –
Cc1ccc(C2(O)Cc3ccccc3C3=NCCN32)cc1 (centres undefined) | 37.5 | – | 37.5 | > 25.6 | 84.1 | > 25.6 | 75 | – | 37.5 | – | – | – | inactive | inactive | MD (Mus musculus [21]): inactive; MD (Mus musculus [23]): inactive
OC1(c2ccc(Cl)cc2)Cc2ccccc2C2=NCCN21 (centres undefined) | 37.5 | 18.8 | 18.8 | 0.025 | 75 | 6.4 | 37.5 | – | – | – | inactive | inactive | – | – | Activity (Felis catus): >1 mg/kg; ED50 (Mus musculus [1]): 25 mg/kg
COc1ccc(C2(O)Cc3ccccc3C3=NCCN32)cc1 (centres undefined) | 37.5 | 18.8 | 18.8 | 8.4 | 138 | 25.6 | 37.5 | – | 50 | – | – | – | inactive | inactive | MD (Mus musculus [15]): 37.5 mg/kg
